Results on 14 molecules are retold here after ChEMBL document CHEMBL1201862, “PubChem BioAssay data set” (2004).

Among the test systems are A498; HCT-116; HCT-15; HOP-92; K562; Malme-3M; NCI-H460; OVCAR-3; SF-268; SF-539; SR; TK-10; U-251; UACC-62; DU-145; MCF7; MDA-MB-435; PC-3.
What all share (test): inhibition of tumour cell growth, NCI panel, 48 h

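Compound exposure: 48 hours, 5 concentrations, 96-well plates. GI50 = concentration required for 50% inhibition of growth.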 The source made the active and inactive calls. No stated cut-off is given here; in the data, active = GI50 up to about 1.1 µM and inactive = higher.

Take `C=CCCCC(C#N)(c1ccccc1)N1CCCC1` (stereo not given): the GI50 in the experiment on A498 is > 100 µM (inactive); in the experiment with HCT-116 it was > 100 µM (inactive); in the experiment on HCT-15, over 100 µM; with HOP-92 it was > 100 µM (inactive); with K562, > 100 µM (inactive); in the experiment on Malme-3M it was > 100 µM (inactive). Also, the GI50 with NCI-H460, in the experiment with OVCAR-3, in the experiment on SF-268, with SF-539, with SR and with TK-10 was > 100 µM (inactive) each time. Also, the GI50 with U-251 and in the experiment on UACC-62 was > 100 µM (inactive) throughout.
In the case of `N#CC(C#N)=C1NC(=O)CC(=O)N1`, the GI50 is > 100 µM (inactive) with A498; > 100 µM (inactive) in the experiment with HCT-116; over 100 µM in the experiment on HCT-15; > 100 µM (inactive) in the experiment on HOP-92; > 100 µM (inactive) in the experiment with K562; > 100 µM (inactive) in the experiment on Malme-3M. Moreover, the GI50 in the experiment on NCI-H460, in the experiment on OVCAR-3, in the experiment on SF-268, in the experiment with SF-539, in the experiment with SR and with TK-10 was > 100 µM (inactive) in each case. Further, the GI50 with U-251 and in the experiment on UACC-62 was > 100 µM (inactive) each time.
For the molecule `Cn1c(=O)c2c3ccccc3c(C(=O)c3ccccc3)n2c2ccccc21`, the GI50 in the experiment on A498 is 7.31 µM (inactive); with HCT-116, 4.12 µM (inactive); in the experiment on HCT-15, 3.4 µM; in the experiment with HOP-92, 3.84 µM (inactive); in the experiment with K562, 4.08 µM (inactive); in the experiment on Malme-3M, 5.62 µM (inactive). Further, the GI50 in the experiment with NCI-H460 was 3.48 µM (inactive); in the experiment with OVCAR-3 it was 2.94 µM (inactive); in the experiment with SF-268 it was 20 µM (inactive); in the experiment on SF-539, 16.3 µM (inactive); with SR, 2.45 µM (inactive); with TK-10, > 43.7 µM (inactive). Moreover, the GI50 is 18.9 µM (inactive) in the experiment with U-251 and 4.02 µM (inactive) with UACC-62.
As to `Nc1nc(N)c2c(-c3ccccc3)ccnc2n1`, the GI50 with A498 is > 100 µM (inactive); in the experiment with DU-145, > 100 µM (inactive); with HCT-116, > 100 µM (inactive); in the experiment on HOP-92 it was 81.7 µM (inactive); in the experiment with K562 it was > 100 µM (inactive); in the experiment on MCF7, > 100 µM (inactive). Moreover, the GI50 in the experiment with MDA-MB-435, in the experiment with Malme-3M, in the experiment on NCI-H460, with OVCAR-3, in the experiment with PC-3 and in the experiment on SF-268 was > 100 µM (inactive) throughout. Besides, the GI50 in the experiment with SR, in the experiment on TK-10, in the experiment on U-251 and in the experiment with UACC-62 was > 100 µM (inactive) throughout.
Consider `CSC(=N)N1N=C2c3ccccc3CC[C@@H]2[C@@H]1c1ccccc1`, for which the GI50 in the experiment on A498 is 16.7 µM (inactive); in the experiment with HCT-116 it was 4.8 µM (inactive); with HCT-15 it was 15.7 µM; in the experiment with HOP-92, 5.16 µM (inactive); in the experiment on K562, 6.03 µM (inactive); in the experiment with Malme-3M, 12.8 µM (inactive). Moreover, the GI50 is 13.2 µM (inactive) in the experiment with NCI-H460; 15.8 µM (inactive) in the experiment on OVCAR-3; 22 µM (inactive) in the experiment with SF-268; 13.9 µM (inactive) in the experiment on SF-539; 10.4 µM (inactive) in the experiment on SR; 17 µM (inactive) with TK-10. For the same molecule, the values for the GI50 with U-251 and in the experiment on UACC-62 were 17.1 µM (inactive) and 17 µM (inactive), respectively.
For `Cc1ccc(NC(=O)C2C3CCC(O3)C2C(=O)O)cc1` (stereo not given), the GI50 was > 45.1 µM (inactive) with A498; > 39 µM (inactive) with HCT-116; over 44.9 µM in the experiment with HCT-15; 36.1 µM (inactive) in the experiment with HOP-92; > 48.2 µM (inactive) with K562; > 100 µM (inactive) with Malme-3M. Besides, the GI50 in the experiment on NCI-H460 is > 71.4 µM (inactive); in the experiment on OVCAR-3, > 52.2 µM (inactive); in the experiment with SF-268, > 53.2 µM (inactive); in the experiment on SF-539, > 57.7 µM (inactive); with SR, 15.7 µM (inactive); in the experiment on TK-10, > 100 µM (inactive). Besides, the GI50 in the experiment with U-251 is 43.1 µM (inactive); in the experiment on UACC-62 it was > 46.6 µM (inactive).
For the molecule `Cc1c(C(=O)C/C(=N/NC(=O)C[n+]2ccccc2)C(=O)Nc2ccccc2)[n+]([O-])c2ccccc2[n+]1[O-]`, the GI50 in the experiment on A498 is > 100 µM (inactive); in the experiment on HCT-116, > 100 µM (inactive); in the experiment with HCT-15 it was over 100 µM; with K562 it was > 100 µM (inactive); in the experiment on Malme-3M, > 100 µM (inactive); with NCI-H460 it was > 100 µM (inactive). Further, the GI50 is > 100 µM (inactive) in the experiment on OVCAR-3; > 100 µM (inactive) with SF-268; > 100 µM (inactive) in the experiment with SF-539; 87.5 µM (inactive) in the experiment on SR; > 100 µM (inactive) in the experiment on TK-10; > 100 µM (inactive) in the experiment with U-251. Besides, the GI50 in the experiment on UACC-62 was > 100 µM (inactive).
Turning to `Cc1cccc(C)c1NC(=O)CCCC(=O)C(C#N)c1ccc(Cl)cc1` (stereo not given), the GI50 in the experiment with A498 is > 100 µM (inactive); in the experiment with HCT-116 it was > 100 µM (inactive); in the experiment on HCT-15, over 100 µM; in the experiment on HOP-92 it was > 100 µM (inactive); with K562, > 100 µM (inactive); in the experiment with Malme-3M, > 100 µM (inactive). Further, the GI50 with NCI-H460, in the experiment with OVCAR-3, with SF-268, in the experiment with SF-539, in the experiment on SR and with TK-10 was > 100 µM (inactive) each time. For the same molecule, the GI50 in the experiment with U-251 and with UACC-62 was > 100 µM (inactive) in each case.
As to `C[Si]12OCCCN(CCO1)CCO2`, the GI50 in the experiment with A498, with HCT-116, with HOP-92, in the experiment on K562, in the experiment with Malme-3M and with NCI-H460 was > 100 µM (inactive) each time. For the same molecule, the GI50 with OVCAR-3, in the experiment on SF-268, with SF-539, in the experiment on SR, in the experiment on TK-10 and in the experiment on U-251 was > 100 µM (inactive) throughout. For the same molecule, in the experiment on UACC-62, the GI50 is > 100 µM (inactive).
For the molecule `NC(CCSCCF)C(=O)O` (stereo not given), the GI50 in the experiment with A498 was > 100 µM (inactive); in the experiment with HCT-116 it was > 100 µM (inactive); with HCT-15, over 100 µM; with HOP-92, > 100 µM (inactive); with K562 it was > 100 µM (inactive); with NCI-H460, > 100 µM (inactive). The GI50 with OVCAR-3, with SF-268, with SF-539, with SR, in the experiment with TK-10 and with U-251 was > 100 µM (inactive) in each case. Moreover, in the experiment with UACC-62, the GI50 is > 100 µM (inactive).
Take `C=C1CC(CCCl)(c2ccccc2)OC1=O` (stereo not given): the GI50 was > 100 µM (inactive) in the experiment with A498; 22.9 µM (inactive) with HCT-116; 19.7 µM in the experiment on HCT-15; 15.7 µM (inactive) with HOP-92; 33.3 µM (inactive) in the experiment with K562; 23.6 µM (inactive) with Malme-3M. Moreover, the GI50 with NCI-H460 was > 100 µM (inactive); in the experiment on OVCAR-3, 26.1 µM (inactive); with SF-268 it was > 67 µM (inactive); in the experiment on SF-539 it was 27.9 µM (inactive); in the experiment on SR it was 20.1 µM (inactive); in the experiment with TK-10, > 47.5 µM (inactive). The GI50 in the experiment with U-251 is > 59.3 µM (inactive); in the experiment on UACC-62, 48.4 µM (inactive).
Take `COc1nc(OC)nc(Sc2ccc(Sc3ccc(Sc4nc(OC)nc(OC)n4)cc3)cc2)n1`: the GI50 in the experiment with A498 is > 100 µM (inactive); with HCT-116, > 100 µM (inactive); in the experiment on HCT-15 it was over 100 µM; in the experiment with HOP-92 it was > 100 µM (inactive); in the experiment with K562, > 100 µM (inactive); in the experiment with Malme-3M, > 100 µM (inactive). Also, the GI50 is > 100 µM (inactive) with NCI-H460; > 100 µM (inactive) in the experiment with OVCAR-3; > 100 µM (inactive) in the experiment on SF-268; > 100 µM (inactive) in the experiment on SF-539; 7.52 µM (inactive) in the experiment on SR; > 100 µM (inactive) in the experiment with TK-10. For the same molecule, the GI50 in the experiment with U-251 and in the experiment with UACC-62 was > 100 µM (inactive) throughout.
Take `COc1c(OC2OC(CO)C(O)C(O)C2O)cc2c(c1OC)-c1ccc(OC)c(=O)cc1C(NC(C)=O)CC2` (stereo not given): the GI50 is > 100 µM (inactive) in the experiment on A498; > 100 µM (inactive) in the experiment with HCT-116; over 100 µM with HCT-15; 44.6 µM (inactive) in the experiment on HOP-92; > 97.3 µM (inactive) in the experiment with K562; 81.7 µM (inactive) with Malme-3M. Further, the GI50 in the experiment on NCI-H460 was > 100 µM (inactive); with OVCAR-3, > 89.7 µM (inactive); in the experiment on SF-268 it was > 100 µM (inactive); in the experiment on SF-539, > 100 µM (inactive); with SR, > 100 µM (inactive); in the experiment on TK-10, > 100 µM (inactive). For the same molecule, the results for the GI50 in the experiment with U-251 and with UACC-62 were > 100 µM (inactive) and 60.1 µM (inactive), respectively.
Take `CC(=O)O[C@@H]1CC[C@@]2(C)C(=O)C34C[C@@]5(C)C([C@@H](C)CCCC(C)C)CCC5(C)[C@](O)(O3)C(=O)[C@H]4C2C1(C)C` (stereo not given in full): the GI50 in the experiment on A498 was 22.2 µM (inactive); in the experiment on HCT-116, 14 µM (inactive); in the experiment with HCT-15, 13.5 µM; in the experiment on HOP-92 it was 19.1 µM (inactive); with K562 it was 9.42 µM (inactive); in the experiment on Malme-3M it was 18.5 µM (inactive). Further, the GI50 with NCI-H460 is 6.04 µM (inactive); in the experiment with OVCAR-3 it was 12.3 µM (inactive); in the experiment with SF-268, 15.8 µM (inactive); with SF-539, 19.3 µM (inactive); in the experiment with SR it was 16 µM (inactive); in the experiment with TK-10, 16.6 µM (inactive). For the same molecule, the GI50 with U-251 was 14.3 µM (inactive); in the experiment on UACC-62, 18.2 µM (inactive).
